From US12428428B2, “Tricyclic tetrahydroisoquinoline derivative, preparation method therefor and application thereof in medicine” (JIANGSU HENGRUI MEDICINE CO., LTD., priority 2020, dated 2025) come the findings set out here.

Assay [1] has as its target ERα (Homo sapiens (Human), UniProt P03372). In words: Degradation of ERα in MCF-7 cells (ELISA). Format: cell-based. The arrangement: Dmax: dose or concentration left out as unconfirmed. Particulars: for Dmax at 3 µM: MCF7, read-out: Emax degradation (%); for DC50: MCF-7 cells, 16 to 18 h, read-out: EC50 (nM), degradation of ERα. Here is the method: ERα-positive breast cancer cell line MCF-7 cells were cultured in a DMEM/F12 medium (HyClone, SH30023.01) containing 10% fetal bovine serum (Corning, 35-010-CV). […] The following day the compounds were serially diluted with DMSO and further diluted with the phenol red-free DMEM/F12 medium containing 5% charcoal-stripped fetal bovine serum. 20 μL of a diluted compound was added to each well of the 48-well plate at final concentrations of 3000, 300, 30, 3, 0.3, 0.03 and 0.003 nM. The 48-well plate was placed in the incubator for 16 to 18 h. A 96-well plate was coated with the capture antibody from the human ERα/NR3A1 total protein assay kit (R&D, DYC5715-5). […] The plate was placed in an incubator at 26° C. overnight. On day 3, the antibody-coated 96-well plate was washed once with PBS, and 200 μL of PBS containing 1% BSA was added to each well. The plate was incubated in an incubator at 37° C. for 1.5 h to be blocked. The cell culture medium supernatant was discarded. The cells were washed once with PBS, and 60 μL of a cell lysis buffer was added to each well. […] The cells were lysed on ice for 15 min, and 300 μL of PBS containing 1 mM EDTA and 0.5% TritonX-100 was added to each well to dilute the urea to 1 M. The blocking buffer in the blocked 96-well plate was discarded, and 100 μL of diluted cell lysis buffer was added to each well. The plate was incubated in an incubator at 37° C. for 2 h and washed 5 times with PBS. A biotinylated assay antibody was diluted to 0.4 μg/mL with PBS containing 1% BSA, and then 100 μL of the assay antibody was added to each well. The plate was incubated in an incubator at 37° C. for 1 h. The plate was then washed five more times, and 100 μL of avidin-HRP diluted 200-fold with PBS containing 1% BSA was added to each well. The plate was incubated at 37° C. for 30 min. The plate was washed five more times, and 100 μL of TMB substrate was added to each well. The plate was incubated at room temperature until blue color appeared, and 100 μL of stop solution was added to each well. OD450 signal values were read using a PHERAstar multi-mode microplate reader. The IC50 values for the inhibitory activity of the compounds were calculated using Graphpad Prism software.
In general terms: In an ELISA, binding on a coated surface is turned into a signal by an enzyme label.

The target in assay [2] is CYP3A4 (Homo sapiens (Human), UniProt P08684). In words: Inhibition of site of metabolism of midazolam in human liver microsome CYP3A4. It is filed as in vitro ADME. To be noted: midazolam substrate. How it is done:
• 1. Phosphate buffer (20×PBS, purchased from Sangon); • 2. NADPH (ACROS, A2646-71-1); • 3. Human liver microsome (Corning Gentest, Cat No, 452161, Lot No. 9050002, Donor, 36); • 4. ABI QTrap 4000 LC-MS System (AB Sciex); • 5. ZORBAX Extend-C18, 3×50 mm, 3.5 μm (Agilent, USA); • 6. CYP probe substrate (midazolam, TRC, M343000/3 μM) and positive control inhibitor (ketoconazole, SIGMA, Cat No. K1003-100MG).
A 100 mM PBS buffer was prepared. A 0.25 mg/mL microsome solution, a 7.5 mM MgCl2 and a 5 mM NADPH solution were prepared using the buffer. A 30 mM stock solution was diluted with DMSO to obtain 30 mM, 10 mM, 3 mM, 1 mM, 0.3 mM, 0.03 mM, 0.003 mM and 0 mM serial solutions I, which were further diluted 200-fold with phosphate buffer (PBS) to obtain serial test solutions II (150, 50, 15, 5, 1.5, 0.15, 0.015 and 0 μM). A midazolam working solution was diluted with PBS to 15 μM.
40 μL of a 0.25 mg/mL microsome solution prepared in 7.5 mM MgCl2 and 20 μL of each of the 15 μM midazolam working solution and the compound working solutions (150, 50, 15, 5, 1.5, 0.15, 0.015 and 0 μM) were measured out and well mixed. Ketoconazole at the same concentration was used in place of the compounds as a positive control group. The mixtures were pre-incubated with 5 mM NADPH solution at 37° C. for 5 min at the same time. After 5 minutes, 20 μL of NADPH was added to each well to start reactions. The mixtures were incubated for 30 min. Duplicate samples were set for all of the incubated samples. After 30 minutes, 250 μL of internal standard-containing acetonitrile was added to all the samples. The mixtures were well mixed, shaken at 800 rpm for 10 min, and then centrifuged at 3700 rpm for 10 min. 100 μL of the supernatant and 80 μL of ultrapure water were well mixed and subjected to LC-MS/MS analysis.
The IC50 values of the drugs for the site of metabolism of midazolam in CYP3A4 were calculated using Graphpad Prism and are shown in Table 5.

Molecules are shown by their SMILES.

Chain of ERα (P03372 whole entry): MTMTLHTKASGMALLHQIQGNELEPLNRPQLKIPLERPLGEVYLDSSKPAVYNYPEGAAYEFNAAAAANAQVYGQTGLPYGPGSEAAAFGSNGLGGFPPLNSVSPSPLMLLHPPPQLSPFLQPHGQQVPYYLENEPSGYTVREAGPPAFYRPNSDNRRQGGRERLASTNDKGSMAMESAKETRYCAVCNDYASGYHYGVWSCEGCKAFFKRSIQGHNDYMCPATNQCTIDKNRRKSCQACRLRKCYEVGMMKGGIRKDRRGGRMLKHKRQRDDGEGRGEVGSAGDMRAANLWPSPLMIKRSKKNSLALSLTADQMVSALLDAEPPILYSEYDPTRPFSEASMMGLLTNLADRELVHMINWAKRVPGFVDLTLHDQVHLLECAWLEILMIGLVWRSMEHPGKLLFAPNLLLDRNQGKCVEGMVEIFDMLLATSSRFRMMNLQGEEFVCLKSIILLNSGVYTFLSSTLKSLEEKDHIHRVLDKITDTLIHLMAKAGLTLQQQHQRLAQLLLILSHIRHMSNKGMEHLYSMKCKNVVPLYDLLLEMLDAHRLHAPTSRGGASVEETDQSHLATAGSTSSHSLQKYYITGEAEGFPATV
Chain of CYP3A4 (P08684 whole entry): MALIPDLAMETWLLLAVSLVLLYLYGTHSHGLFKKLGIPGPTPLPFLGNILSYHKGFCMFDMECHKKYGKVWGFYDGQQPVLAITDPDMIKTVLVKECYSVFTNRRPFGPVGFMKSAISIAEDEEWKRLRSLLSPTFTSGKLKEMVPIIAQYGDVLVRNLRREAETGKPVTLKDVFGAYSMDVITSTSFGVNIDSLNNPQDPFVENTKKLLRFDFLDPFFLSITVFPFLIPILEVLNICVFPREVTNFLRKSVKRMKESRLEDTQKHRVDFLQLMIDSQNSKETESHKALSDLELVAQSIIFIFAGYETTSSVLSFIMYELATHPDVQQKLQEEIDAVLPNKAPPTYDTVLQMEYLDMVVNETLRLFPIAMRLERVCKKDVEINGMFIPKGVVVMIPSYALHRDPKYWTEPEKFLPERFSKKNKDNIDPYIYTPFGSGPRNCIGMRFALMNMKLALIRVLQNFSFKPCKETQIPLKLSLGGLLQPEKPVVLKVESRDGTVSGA

Regarding `C[C@@H]1Cc2cc3c(cc2[C@@H](c2ccc(N[C@H]4CCN(CCCF)C4)cc2)N1CC(F)(F)F)OCO3` [Example 1, (S)-1-(3-fluoropropyl)-N-(4-((5R,7R)-7-methyl-6-(2,2,2-trifluoroethyl)-5,6,7,8-tetrahydro-[1,3]dioxolo[4,5-g]isoquinolin-5-yl)phenyl)pyrrolidin-3-amine], in assay [1], the Dmax at 3 µM stood at 94% and the DC50 came out at 0.32 nM. In assay [2], this molecule returned an IC50 of 15.8 µM.
Regarding `C[C@@H]1Cc2cc3c(cc2[C@@H](c2ncc(N[C@H]4CCN(CCCF)C4)cc2F)N1CC(F)(F)CO)OCO3` [Example 11, 2,2-Difluoro-3-((5S,7R)-5-(3-fluoro-5-(((S)-1-(3-fluoropropyl)pyrrolidin-3-yl)amino)pyridin-2-yl)-7-methyl-7,8-dihydro-[1,3]dioxolo[4,5-g]isoquinolin-6(5H)-yl)propan-1-ol], in assay [1], the Dmax at 3 µM was 91% and the DC50 turned out to be 0.45 nM.
For the molecule `C[C@@H]1Cc2cc3c(cc2[C@@H](c2ccc(NC4CN(CCCF)C4)cc2)N1CC(F)(F)CO)OCO3` [Example 18, 2,2-Difluoro-3-((5R,7R)-5-(4-((1-(3-fluoropropyl)azetidin-3-yl)amino)phenyl)-7-methyl-7,8-dihydro-[1,3]dioxolo[4,5-g]isoquinolin-6(5H)-yl)propan-1-ol], in assay [1], the Dmax at 3 µM turned out to be 106% and the DC50 turned out to be 0.1 nM.
On to `C[C@@H]1Cc2cc3c(cc2[C@@H](c2ccc(N[C@H]4CCN(CCCF)C4)cc2)N1CC(F)(F)CO)OCO3` [Example 3, 2,2-Difluoro-3-((5R,7R)-5-(4-(((S)-1-(3-fluoropropyl)pyrrolidin-3-yl)amino)phenyl)-7-methyl-7,8-dihydro-[1,3]dioxolo[4,5-g]isoquinolin-6(5H)-yl)propan-1-ol], for which, in assay [1], the Dmax at 3 µM was 129% and the DC50 was 0.19 nM. The molecule further yielded an IC50 in assay [2] of 10 µM.
Turning to `C[C@@H]1Cc2cc3c(cc2[C@@H](c2c(F)cc(N[C@H]4CCN(CCCF)C4)cc2F)N1CC(F)(F)F)OCO3` [Example 2, (S)—N-(3,5-difluoro-4-((5S,7R)-7-methyl-6-(2,2,2-trifluoroethyl)-5,6,7,8-tetrahydro-[1,3]dioxolo[4,5-g]isoquinolin-5-yl)phenyl)-1-(3-fluoropropyl)pyrrolidin-3-amine], in assay [1], the Dmax at 3 µM worked out at 104% and the DC50 turned out to be 0.24 nM. For the same molecule, the IC50 in assay [2] was greater than 30 µM.
`C[C@@H]1Cc2cc3c(cc2[C@@H](c2ccc(N[C@H]4CCN(CCCF)C4)cn2)N1CC(F)(F)F)OCO3` [Example 6, N—((S)-1-(3-fluoropropyl)pyrrolidin-3-yl)-6-((5S,7R)-7-methyl-6-(2,2,2-trifluoroethyl)-5,6,7,8-tetrahydro-[1,3]dioxolo[4,5-g]isoquinolin-5-yl)pyridin-3-amine]: in assay [1], the Dmax at 3 µM was 104% and the DC50 is 0.17 nM.
As to `[2H]C1([2H])Oc2cc3c(cc2O1)[C@@H](c1ccc(N[C@H]2CCN(CCCF)C2)cn1)N(CC(F)(F)CO)[C@H](C)C3` [Example 12, 2,2-Difluoro-3-((5S,7R)-5-(5-(((S)-1-(3-fluoropropyl)pyrrolidin-3-yl)amino)pyridin-2-yl)-7-methyl-7,8-dihydro-[1,3]dioxolo[4,5-g]isoquinolin-6(5H)-yl-2,2-d2)propan-1-ol], in assay [1], the Dmax at 3 µM amounted to 101% and the DC50 came to 0.15 nM. In assay [2], this molecule displayed an IC50 of 8.18 µM.
Turning to `C[C@@H]1Cc2cc3c(cc2[C@@H](c2ccc(NC4CN(CCCF)C4)cn2)N1CC(F)(F)F)OCO3` [Example 17, N-(1-(3-fluoropropyl)azetidin-3-yl)-6-((5S,7R)-7-methyl-6-(2,2,2-trifluoroethyl)-5,6,7,8-tetrahydro-[1,3]dioxolo[4,5-g]isoquinolin-5-yl)pyridin-3-amine], in assay [1], the Dmax at 3 µM came out at 104% and the DC50 is 1.24 nM.
For the molecule `C[C@@H]1Cc2cc3c(cc2[C@@H](c2ccc(NC4CN(CCCF)C4)cn2)N1CC(F)(F)CO)OCO3` [Example 14, 2,2-Difluoro-3-((5S,7R)-5-(5-((1-(3-fluoropropyl)azetidin-3-yl)amino)pyridin-2-yl)-7-methyl-7,8-dihydro-[1,3]dioxolo[4,5-g]isoquinolin-6(5H)-yl)propan-1-ol], in assay [1], the Dmax at 3 µM was found to be 92% and the DC50 was 0.5 nM.
As to `C[C@@H]1Cc2cc3c(cc2[C@@H](c2ncc(N[C@H]4CCN(CCCF)C4)cc2F)N1CC(F)(F)F)OCO3` [Example 9, 5-Fluoro-N—((S)-1-(3-fluoropropyl)pyrrolidin-3-yl)-6-((5S,7R)-7-methyl-6-(2,2,2-trifluoroethyl)-5,6,7,8-tetrahydro-[1,3]dioxolo[4,5-g]isoquinolin-5-yl)pyridin-3-amine], in assay [1], the Dmax at 3 µM was determined as 107% and the DC50 came to 1.04 nM.
As to `[2H]C1([2H])Oc2cc3c(cc2O1)[C@@H](c1ccc(N[C@H]2CCN(CCCF)C2)cc1)N(CC(F)(F)CO)[C@H](C)C3` [Example 19, 2,2-Difluoro-3-((5R,7R)-5-(4-(((S)-1-(3-fluoropropyl)pyrrolidin-3-yl)amino)phenyl)-7-methyl-7,8-dihydro-[1,3]dioxolo[4,5-g]isoquinolin-6(5H)-yl-2,2-d2)propan-1-ol], in assay [1], the Dmax at 3 µM amounted to 100% and the DC50 was 0.13 nM.
Take `C[C@@H]1Cc2cc3c(cc2[C@@H](c2ccc(N[C@H]4CCN(CCCF)C4)cn2)N1CC(F)(F)CO)OCO3` [Example 4, 2,2-Difluoro-3-((5S,7R)-5-(5-(((S)-1-(3-fluoropropyl)pyrrolidin-3-yl)amino)pyridin-2-yl)-7-methyl-7,8-dihydro-[1,3]dioxolo[4,5-g]isoquinolin-6(5H)-yl)propan-1-ol]: in assay [1], the Dmax at 3 µM came to 115% and the DC50 worked out at 0.21 nM.
In the case of `C[C@@H]1Cc2cc3c(cc2[C@@H](c2c(F)cc(O[C@H]4CCN(CCCF)C4)cc2F)N1CC(F)(F)F)OCO3` [Example 15, (5S,7R)-5-(2,6-difluoro-4-(((S)-1-(3-fluoropropyl)pyrrolidin-3-yl)oxy)phenyl)-7-methyl-6-(2,2,2-trifluoroethyl)-5,6,7,8-tetrahydro-[1,3]dioxolo[4,5-g]isoquinoline], in assay [1], the Dmax at 3 µM was found to be 95% and the DC50 was 0.15 nM.
As for `C[C@@H]1Cc2cc3c(cc2[C@@H](c2c(F)cc(N[C@H]4CCN(CCCF)C4)cc2F)N1CC(F)(F)CO)OCO3` [Example 5, 3-((5S,7R)-5-(2,6-difluoro-4-(((S)-1-(3-fluoropropyl)pyrrolidin-3-yl)amino)phenyl)-7-methyl-7,8-dihydro-[1,3]dioxolo[4,5-g]isoquinolin-6(5H)-yl)-2,2-difluoro-1-propanol], in assay [1], the Dmax at 3 µM turned out to be 108% and the DC50 is 0.04 nM.
With `[2H]C1([2H])Oc2cc3c(cc2O1)[C@@H](c1ccc(NC2CN(CCCF)C2)cn1)N(CC(F)(F)CO)[C@H](C)C3` [Example 13, 2,2-Difluoro-3-((5S,7R)-5-(5-((1-(3-fluoropropyl)azetidin-3-yl)amino)pyridin-2-yl)-7-methyl-7,8-dihydro-[1,3]dioxolo[4,5-g]isoquinolin-6(5H)-yl-2,2-d2)propan-1-ol], the Dmax in assay [1] (MCF7, read-out: Emax degradation (%)) worked out at 107%.

By IC50 is commonly meant the midpoint of a concentration-inhibition curve.
